From patent publication US11477982B2, “2-amino-5-oxyalkyl-pyrimidine derivatives and their use for controlling undesired plant growth” (Bayer CropScience Aktiengesellschaft, priority 2017, dated 2022)

Tests used:
Type in all cases: in vivo
[1] = tested on: POLCO: Polygonum convolvulus; assay: Post-emergence herbicidal effect
Procedure, shortened: (§1)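 Weeds grown from seed in sandy loam in the greenhouse were sprayed at the one-leaf stage, 2 to 3 weeks after sowing. Compounds formulated as WP or EC were applied as aqueous suspension or emulsion with 0.5% additive at 600 l/ha. Activity was scored visually after about 3 weeks versus untreated controls (100% = dead, 0% = as control).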

[2] = tested on: SETVI: Setaria viridis; assay: Post-emergence herbicidal effect
Procedure, shortened: as §1

[3] = tested on: ALOMY: Alopecurus myosuroides; assay: Post-emergence herbicidal effect
Procedure, shortened: as §1

[4] = tested on: ABUTH: Abutilon theophrasti; assay: Post-emergence herbicidal effect
Procedure, shortened: as §1

[5] = tested on: ECHCG: Echinochloa crus-galli; assay: Post-emergence herbicidal effect
Procedure, shortened: as §1

[6] = tested on: LOLRI: Lolium rigidum; assay: Post-emergence herbicidal effect
Procedure, shortened: as §1

[7] = tested on: PHBPU: Ipomoea purpurea; assay: Post-emergence herbicidal effect
Procedure, shortened: as §1

[8] = tested on: HORMU: Hordeum murinum; assay: Post-emergence herbicidal effect
Procedure, shortened: as §1

[9] = tested on: VERPE: Veronica persica; assay: Post-emergence herbicidal effect; details: dosage 320 g/ha
Procedure, shortened: as §1

[10] = tested on: AVEFA: Avena fatua; assay: Post-emergence herbicidal effect
Procedure, shortened: as §1

[11] = tested on: VIOTR: Viola tricolor; assay: Post-emergence herbicidal effect
Procedure, shortened: as §1

[12] = tested on: STEME: Stellaria media; assay: Post-emergence herbicidal effect
Procedure, shortened: as §1

[13] = tested on: AMARE: Amaranthus retroflexus; assay: Post-emergence herbicidal effect
Procedure, shortened: as §1

[14] = tested on: VERPE: Veronica persica; assay: Pre-emergence herbicidal effect; details: dosage 320 g/ha
Procedure, shortened: (§2)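 Visual percent scoring against untreated pots after roughly 3 weeks in the greenhouse (100% = dead, 0% = no effect). Treatment was a pre-emergence soil-surface spray of WP or EC formulations in water plus 0.5% additive, 600 l/ha.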

[15] = tested on: POLCO: Polygonum convolvulus; assay: Pre-emergence herbicidal effect
Procedure, shortened: as §2

[16] = tested on: VIOTR: Viola tricolor; assay: Pre-emergence herbicidal effect; details: dosage 320 g/ha
Procedure, shortened: as §2

[17] = tested on: AMARE: Amaranthus retroflexus; assay: Pre-emergence herbicidal effect; details: pre-emergence
Procedure, shortened: as §2

[18] = tested on: MATIN: Matricaria inodora; assay: Pre-emergence herbicidal effect; details: pre-emergence; dosage 320 g/ha
Procedure, shortened: as §2

[19] = tested on: MATIN: Matricaria inodora; assay: Post-emergence herbicidal effect
Procedure, shortened: as §1

[20] = tested on: CYPES; assay: Pre-emergence herbicidal effect
Procedure, shortened: as §2

[21] = tested on: SETVI: Setaria viridis; assay: Pre-emergence herbicidal effect; details: pre-emergence
Procedure, shortened: as §2

[22] = tested on: AVEFA: Avena fatua; assay: Pre-emergence herbicidal effect
Procedure, shortened: as §2

[23] = tested on: ALOMY: Alopecurus myosuroides; assay: Pre-emergence herbicidal effect; details: pre-emergence
Procedure, shortened: as §2

[24] = tested on: ABUTH: Abutilon theophrasti; assay: Pre-emergence herbicidal effect
Procedure, shortened: as §2

[25] = tested on: ECHCG: Echinochloa crus-galli; assay: Pre-emergence herbicidal effect; details: pre-emergence
Procedure, shortened: as §2

[26] = tested on: LOLRI: Lolium rigidum; assay: Pre-emergence herbicidal effect
Procedure, shortened: as §2

[27] = tested on: PHBPU: Ipomoea purpurea; assay: Pre-emergence herbicidal effect
Procedure, shortened: as §2

[28] = tested on: STEME: Stellaria media; assay: Pre-emergence herbicidal effect; details: pre-emergence; dosage 320 g/ha
Procedure, shortened: as §2

[29] = tested on: HORMU: Hordeum murinum; assay: Pre-emergence herbicidal effect; details: pre-emergence
Procedure, shortened: as §2

## Cc1ccc2c(c1)[C@H](Nc1ncc([C@H](C)O)c(N)n1)[C@@H](C)C2 (racemic) [drawing 14, reference compound]
[1]; dosage 80 g/ha
  Herbicidal action against POLCO: 60%
[1]; dosage 320 g/ha
  Herbicidal action against POLCO: 60%
[2]; dosage 80 g/ha
  Herbicidal action against SETVI: 60%
[3]; dosage 80 g/ha
  Herbicidal action against ALOMY: 0%
[3]; dosage 320 g/ha
  Herbicidal action against ALOMY: 70%
[4]; dosage 80 g/ha
  Herbicidal action against ABUTH: 10%
[4]; dosage 320 g/ha
  Herbicidal action against ABUTH: 60%
[5]; dosage 80 g/ha
  Herbicidal action against ECHCG: 0%
[6]; dosage 80 g/ha
  Herbicidal action against LOLRI: 30%
[6]; dosage 320 g/ha
  Herbicidal action against LOLRI: 70%
[7]; dosage 80 g/ha
  Herbicidal action against PHBPU: 20%
[7]; dosage 320 g/ha
  Herbicidal action against PHBPU: 80%
[8]; dosage 80 g/ha
  Herbicidal action against HORMU: 0%
[8]; dosage 320 g/ha
  Herbicidal action against HORMU: 20%

## Cc1ccc2c(c1)[C@H](Nc1ncc(C(C)O)cn1)[C@@H](C)C2 (stereo partly drawn) [Example 1.2]
[9]
  Herbicidal action against VERPE: 90%
[1]; dosage 80 g/ha
  Herbicidal action against POLCO: 90%
[1]; dosage 320 g/ha
  Herbicidal action against POLCO: 90%
[2]; dosage 80 g/ha
  Herbicidal action against SETVI: 90%
[2]; dosage 320 g/ha
  Herbicidal action against SETVI: 90%
[10]; dosage 80 g/ha
  Herbicidal action against AVEFA: 60%
[10]; dosage 320 g/ha
  Herbicidal action against AVEFA: 80%
[11]; dosage 320 g/ha
  Herbicidal action against VIOTR: 80%
[4]; dosage 320 g/ha
  Herbicidal action against ABUTH: 80%
[5]; dosage 80 g/ha
  Herbicidal action against ECHCG: 40%
[5]; dosage 320 g/ha
  Herbicidal action against ECHCG: 100%
[7]; dosage 80 g/ha
  Herbicidal action against PHBPU: 40%
[12]; dosage 80 g/ha
  Herbicidal action against STEME: 90%
[12]; dosage 320 g/ha
  Herbicidal action against STEME: 100%
[13]; dosage 80 g/ha
  Herbicidal action against AMARE: 100%
[13]; dosage 320 g/ha
  Herbicidal action against AMARE: 100%
[14]
  Herbicidal action against VERPE: 100%
[15]; dosage 320 g/ha
  Herbicidal action against POLCO: 100%
[16]
  Herbicidal action against VIOTR: 100%
[17]; dosage 320 g/ha
  Herbicidal action against AMARE: 100%
[18]
  Herbicidal action against MATIN: 100%

## Cc1ccc2c(c1)[C@H](Nc1ncc(C(C)(C)O)cn1)[C@@H](C)C2 [Example 1.4]
[1]; dosage 80 g/ha
  Herbicidal action against POLCO: 70%
[1]; dosage 320 g/ha
  Herbicidal action against POLCO: 90%
[2]; dosage 320 g/ha
  Herbicidal action against SETVI: 80%
[10]; dosage 80 g/ha
  Herbicidal action against AVEFA: 20%
[10]; dosage 320 g/ha
  Herbicidal action against AVEFA: 50%
[3]; dosage 80 g/ha
  Herbicidal action against ALOMY: 20%
[3]; dosage 320 g/ha
  Herbicidal action against ALOMY: 70%
[11]; dosage 80 g/ha
  Herbicidal action against VIOTR: 90%
[4]; dosage 80 g/ha
  Herbicidal action against ABUTH: 60%
[4]; dosage 320 g/ha
  Herbicidal action against ABUTH: 90%
[5]; dosage 80 g/ha
  Herbicidal action against ECHCG: 30%
[5]; dosage 320 g/ha
  Herbicidal action against ECHCG: 90%
[6]; dosage 80 g/ha
  Herbicidal action against LOLRI: 60%
[6]; dosage 320 g/ha
  Herbicidal action against LOLRI: 90%
[7]; dosage 320 g/ha
  Herbicidal action against PHBPU: 100%
[12]; dosage 80 g/ha
  Herbicidal action against STEME: 60%
[12]; dosage 320 g/ha
  Herbicidal action against STEME: 90%
[13]; dosage 320 g/ha
  Herbicidal action against AMARE: 100%
[19]; dosage 80 g/ha
  Herbicidal action against MATIN: 40%
[19]; dosage 320 g/ha
  Herbicidal action against MATIN: 80%
[14]
  Herbicidal action against VERPE: 100%
[15]; dosage 80 g/ha
  Herbicidal action against POLCO: 100%
[15]; dosage 320 g/ha
  Herbicidal action against POLCO: 100%
[20]; dosage 80 g/ha
  Herbicidal action against CYPES: 80%
[20]; dosage 320 g/ha
  Herbicidal action against CYPES: 100%
[21]; dosage 80 g/ha
  Herbicidal action against SETVI: 100%
[21]; dosage 320 g/ha
  Herbicidal action against SETVI: 100%
[22]; dosage 80 g/ha
  Herbicidal action against AVEFA: 80%
[22]; dosage 320 g/ha
  Herbicidal action against AVEFA: 100%
[23]; dosage 80 g/ha
  Herbicidal action against ALOMY: 90%
[23]; dosage 320 g/ha
  Herbicidal action against ALOMY: 100%
[16]
  Herbicidal action against VIOTR: 100%
[24]; dosage 80 g/ha
  Herbicidal action against ABUTH: 100%
[24]; dosage 320 g/ha
  Herbicidal action against ABUTH: 100%
[25]; dosage 80 g/ha
  Herbicidal action against ECHCG: 100%
[25]; dosage 320 g/ha
  Herbicidal action against ECHCG: 100%
[26]; dosage 80 g/ha
  Herbicidal action against LOLRI: 100%
[26]; dosage 320 g/ha
  Herbicidal action against LOLRI: 100%
[27]; dosage 80 g/ha
  Herbicidal action against PHBPU: 80%
[27]; dosage 320 g/ha
  Herbicidal action against PHBPU: 100%
[28]
  Herbicidal action against STEME: 100%
[17]; dosage 80 g/ha
  Herbicidal action against AMARE: 100%
[17]; dosage 320 g/ha
  Herbicidal action against AMARE: 100%
[18]
  Herbicidal action against MATIN: 100%
[29]; dosage 80 g/ha
  Herbicidal action against HORMU: 90%
[29]; dosage 320 g/ha
  Herbicidal action against HORMU: 100%

## Cc1ccc2c(c1)[C@H](Nc1ncc(C(C)(C)O)c(C)n1)[C@@H](C)C2 [Example 1.6]
[9]
  Herbicidal action against VERPE: 80%
[1]; dosage 320 g/ha
  Herbicidal action against POLCO: 80%
[2]; dosage 80 g/ha
  Herbicidal action against SETVI: 90%
[2]; dosage 320 g/ha
  Herbicidal action against SETVI: 100%
[10]; dosage 320 g/ha
  Herbicidal action against AVEFA: 100%
[3]; dosage 80 g/ha
  Herbicidal action against ALOMY: 90%
[3]; dosage 320 g/ha
  Herbicidal action against ALOMY: 100%
[11]; dosage 80 g/ha
  Herbicidal action against VIOTR: 90%
[11]; dosage 320 g/ha
  Herbicidal action against VIOTR: 90%
[4]; dosage 80 g/ha
  Herbicidal action against ABUTH: 80%
[4]; dosage 320 g/ha
  Herbicidal action against ABUTH: 90%
[5]; dosage 80 g/ha
  Herbicidal action against ECHCG: 100%
[5]; dosage 320 g/ha
  Herbicidal action against ECHCG: 100%
[6]; dosage 80 g/ha
  Herbicidal action against LOLRI: 40%
[6]; dosage 320 g/ha
  Herbicidal action against LOLRI: 100%
[7]; dosage 320 g/ha
  Herbicidal action against PHBPU: 100%
[12]; dosage 80 g/ha
  Herbicidal action against STEME: 100%
[12]; dosage 320 g/ha
  Herbicidal action against STEME: 100%
[13]; dosage 80 g/ha
  Herbicidal action against AMARE: 100%
[13]; dosage 320 g/ha
  Herbicidal action against AMARE: 100%
[19]; dosage 80 g/ha
  Herbicidal action against MATIN: 20%
[14]
  Herbicidal action against VERPE: 100%
[15]; dosage 80 g/ha
  Herbicidal action against POLCO: 100%
[15]; dosage 320 g/ha
  Herbicidal action against POLCO: 100%
[21]; dosage 80 g/ha
  Herbicidal action against SETVI: 100%
[21]; dosage 320 g/ha
  Herbicidal action against SETVI: 100%
[22]; dosage 80 g/ha
  Herbicidal action against AVEFA: 80%
[22]; dosage 320 g/ha
  Herbicidal action against AVEFA: 100%
[23]; dosage 80 g/ha
  Herbicidal action against ALOMY: 100%
[23]; dosage 320 g/ha
  Herbicidal action against ALOMY: 100%
[16]
  Herbicidal action against VIOTR: 100%
[24]; dosage 80 g/ha
  Herbicidal action against ABUTH: 90%
[24]; dosage 320 g/ha
  Herbicidal action against ABUTH: 100%
[25]; dosage 80 g/ha
  Herbicidal action against ECHCG: 100%
[25]; dosage 320 g/ha
  Herbicidal action against ECHCG: 100%
[26]; dosage 80 g/ha
  Herbicidal action against LOLRI: 100%
[26]; dosage 320 g/ha
  Herbicidal action against LOLRI: 100%
[27]; dosage 80 g/ha
  Herbicidal action against PHBPU: 80%
[27]; dosage 320 g/ha
  Herbicidal action against PHBPU: 100%
[28]
  Herbicidal action against STEME: 100%
[17]; dosage 80 g/ha
  Herbicidal action against AMARE: 100%
[17]; dosage 320 g/ha
  Herbicidal action against AMARE: 100%
[18]
  Herbicidal action against MATIN: 100%
[29]; dosage 80 g/ha
  Herbicidal action against HORMU: 100%
[29]; dosage 320 g/ha
  Herbicidal action against HORMU: 100%
